Laboratory results published in PMC10935098 (Molecules, 2024).
≈ marks a conversion by molar mass, not a printed value. Where a SMILES comes first, the peptide text is derived from it. Bridges are numbered along the chain shown (N, C = ends). [ ]: non-standard residue; d: D form.

Columns and labels:
[1] = tested on: Candida tropicalis; type: cell-based
[2] = tested on: Candida tropicalis (BNCC340288); details: BNCC340288, 24 h
[3] = tested on: Bacillus subtilis (BNCC109047); details: BNCC109047, 24 h
[4] = in vitro; details: serum
[5] = tested on: Bacillus subtilis; type: cell-based
[6] = tested on: Escherichia coli (BNCC336902); details: BNCC336902, 24 h
[7] = tested on: human hepatocytes (THLE-3)
[8] = tested on: erythrocytes of C57BL/6 mice; details: 128 µM
[9] = tested on: Candida parapsilosis (BNCC336015); details: BNCC336015, 24 h
[10] = tested on: Candida tropicalis; type: cell-based; remark: listed apart in the source
[11] = tested on: C57BL/6 mice; details: mouse, ip, 10 mg/kg
[12] = tested on: trypsin; details: pH 6.8

SMILES	Effect on growth of Candida tropicalis (growth curve) [1]	MIC, C. tropical [2]	MIC, B. subtilis [3]	remaining at 4 h [4]	Effect on growth of Bacillus subtilis (growth curve) [5]	MIC, E. coli [6]	Cytotoxicity on human hepatocyte THLE-3 [7]	Hemolysis [8]	MIC, C. parapsilosis [9]	Bactericidal effect on Candida tropicalis [10]	Fungal counts after 60 min [10]	Reduction of fungal counts [10]	In vivo safety in mice [11]	Stability in SIF [12]	Toxicity on human hepatocyte THLE-3 [7]	Body weight change ([11]; in vivo)
CC(C)C[C@@H]1NC(=O)[C@@H]2CSSC[C@@H](C(N)=O)NC(=O)[C@@H](CCCNC(=N)N)NC(=O)[C@H](CC(C)C)NC(=O)[C@@H](CCCCN)NC(=O)[C@H](CC(C)C)NC(=O)[C@@H](CCCNC(=N)N)NC(=O)[C@H](CSSC[C@H](NC(=O)[C@@H](N)CC(C)C)C(=O)N2)NC(=O)[C@@H](CCCNC(=N)N)NC1=O [Pep 8] (H-LCCL[dR]C[dR]L[dK]L[dR]C-NH2; disulfide 2-6, 3-12)	inhibitory effects	8 µM (≈ 11.8 µg/mL)	16 µM (≈ 23.6 µg/mL)	20%	inhibitory effects	128 µM (≈ 189 µg/mL)	remarkable cytotoxicity	less than 5%	8 µM (≈ 11.8 µg/mL)	significant bactericidal effect	1 × 10^3 cfu/mL	over 1000 fold	favorable safety	remained almost entirely intact after 24 h	–	–
CC(C)C[C@@H]1NC(=O)[C@@H]2CSSC[C@@H](C(N)=O)NC(=O)[C@@H](CCCCN)NC(=O)[C@H](CC(C)C)NC(=O)[C@@H](CCCCN)NC(=O)[C@H](CSSC[C@H](NC(=O)[C@@H](N)CC(C)C)C(=O)N2)NC(=O)[C@@H](CCCCN)NC(=O)[C@H](CC(C)C)NC(=O)[C@@H](CCCCN)NC1=O [Pep 3] (H-LCCL[dK]L[dK]C[dK]L[dK]C-NH2; disulfide 2-8, 3-12)	–	>64 µM	>64 µM	–	–	>64 µM	–	–	>64 µM	–	–	–	–	–	–	–
CC(C)C[C@@H]1NC(=O)[C@@H]2CSSC[C@@H](C(N)=O)NC(=O)[C@@H](CCCCN)NC(=O)[C@H](Cc3c[nH]c4ccccc34)NC(=O)[C@@H](CCCCN)NC(=O)[C@H](CSSC[C@H](NC(=O)[C@@H](N)CC(C)C)C(=O)N2)NC(=O)[C@@H](CCCCN)NC(=O)[C@H](CC(C)C)NC(=O)[C@@H](CCCCN)NC1=O [Pep 2] (H-LCCL[dK]L[dK]C[dK]W[dK]C-NH2; disulfide 2-8, 3-12)	–	>64 µM	>64 µM	–	–	>64 µM	–	–	>64 µM	–	–	–	–	–	–	–
CC(C)C[C@@H]1NC(=O)[C@@H](CCCCN)NC(=O)[C@@H]2CSSC[C@H](NC(=O)[C@H](CC(C)C)NC(=O)[C@@H](CCCCN)NC(=O)[C@@H](CCCCN)NC(=O)[C@@H](N)CC(C)C)C(=O)N[C@@H](CSSC[C@@H](C(N)=O)NC(=O)[C@@H](CCCCN)NC1=O)C(=O)N[C@H](CCCCN)C(=O)N2 [Pep 6] (H-L[dK][dK]LCC[dK]C[dK]L[dK]C-NH2; disulfide 5-8, 6-12)	inhibitory effects	8 µM (≈ 11.2 µg/mL)	64 µM (≈ 90 µg/mL)	20%	–	128 µM (≈ 180 µg/mL)	–	less than 5%	32 µM (≈ 45 µg/mL)	significant bactericidal effect	1 × 10^3 cfu/mL	over 1000 fold	–	remained almost entirely intact after 24 h	little or no toxicity	no significant changes
CC(C)C[C@@H]1NC(=O)[C@@H]2CSSC[C@@H](C(N)=O)NC(=O)[C@@H](CCCCN)NC(=O)[C@H](CC(C)C)NC(=O)[C@@H](CCCCN)NC(=O)[C@H](CC(C)C)NC(=O)[C@@H](CCCCN)NC(=O)[C@H](CSSC[C@H](NC(=O)[C@@H](N)CC(C)C)C(=O)N2)NC(=O)[C@@H](CCCCN)NC1=O [Pep 5] (H-LCCL[dK]C[dK]L[dK]L[dK]C-NH2; disulfide 2-6, 3-12)	–	64 µM (≈ 89 µg/mL)	128 µM (≈ 178 µg/mL)	20%	–	32 µM (≈ 44.5 µg/mL)	–	less than 5%	128 µM (≈ 178 µg/mL)	–	–	–	–	remained almost entirely intact after 24 h	–	–
CC(C)C[C@@H]1NC(=O)[C@@H]2CSSC[C@@H](C(N)=O)NC(=O)[C@@H](CCCCN)NC(=O)[C@H](Cc3ccc(O)cc3)NC(=O)[C@@H](CCCCN)NC(=O)[C@H](CSSC[C@H](NC(=O)CN)C(=O)N2)NC(=O)[C@@H](CCCCN)NC(=O)[C@H](CC(C)C)NC(=O)[C@@H](CCCCN)NC1=O [Pep 1] (H-GCCL[dK]L[dK]C[dK]Y[dK]C-NH2; disulfide 2-8, 3-12)	–	>64 µM	>64 µM	–	–	>64 µM	–	–	>64 µM	–	–	–	–	–	–	–
CC(C)C[C@@H]1NC(=O)[C@H](CCCCN)NC(=O)[C@H](CC(C)C)NC(=O)[C@H](CCCCN)NC(=O)[C@@H]2CSSC[C@H](NC(=O)[C@@H](N)CC(C)C)C(=O)N[C@@H](CSSC[C@@H](C(N)=O)NC(=O)[C@H](CCCCN)NC1=O)C(=O)N[C@@H](CC(C)C)C(=O)N[C@@H](CCCCN)C(=O)N2 [Pep 7] (H-LCCLKCKLKLKC-NH2; disulfide 2-6, 3-12)	–	64 µM (≈ 89 µg/mL)	64 µM (≈ 89 µg/mL)	–	–	>128 µM	–	–	64 µM (≈ 89 µg/mL)	–	–	–	–	nearly fully degraded within one hour	–	–
CC(C)C[C@@H]1NC(=O)[C@@H]2CSSC[C@@H](C(N)=O)NC(=O)[C@@H](CCCCN)NC(=O)[C@H](CC(C)C)NC(=O)[C@@H](CCCCN)NC(=O)[C@H](CSSC[C@H](NC(=O)[C@@H](N)CC(C)C)C(=O)N2)NC(=O)[C@H](C)NC(=O)[C@@H](CCCCN)NC(=O)[C@H](CC(C)C)NC(=O)[C@@H](CCCCN)NC1=O [Pep 4] (H-LCCL[dK]L[dK]AC[dK]L[dK]C-NH2; disulfide 2-9, 3-13)	–	>64 µM	>64 µM	–	–	>64 µM	–	–	>64 µM	–	–	–	–	–	–	–
CC(C)C[C@@H]1NC(=O)[C@H](CCCCN)NC(=O)[C@@H]2CSSC[C@H](NC(=O)[C@H](CC(C)C)NC(=O)[C@H](CCCCN)NC(=O)[C@H](CCCCN)NC(=O)[C@@H](N)CC(C)C)C(=O)N[C@@H](CSSC[C@@H](C(N)=O)NC(=O)[C@H](CCCCN)NC1=O)C(=O)N[C@@H](CCCCN)C(=O)N2 [Pep 9] (H-LKKLCCKCKLKC-NH2; disulfide 5-8, 6-12)	inhibitory effects	16 µM (≈ 22.5 µg/mL)	128 µM (≈ 180 µg/mL)	–	–	>128 µM	–	–	16 µM (≈ 22.5 µg/mL)	–	1 × 10^3 cfu/mL	over 1000 fold	–	nearly fully degraded within one hour	little or no toxicity	–
